Assays:
[1] = tested on: Floratam St. Augustine grass; experiment: Turfgrass quality and color ratings, St. Augustine grass (Example 9); format: in vivo; parameters: key: 1-10 scale: 10 = dark green turf, 1 = dead/brown, 6 = minimally acceptable; conditions: scale 1-10
Source text: In this Example, the effect of a fertilizer comprising lysine on warn season turfgrass growth was examined. The effects of lysine (HCl) and LIQUID LYSINE on a common type of lawn quality turfgrass (St. Augustine grass) were compared with those of urea and Milorganite. St. Augustine grass is a commonly utilized turfgrass throughout the warm, tropical zones for lawn turf and is a commercially significant species.
Twelve fertilizer treatments comprising three concentrations of each fertilizer composition (Milorganite (N—P—K, 6-2-0), urea N—P—K, 46-0-0), LIQUID LYSINE (N—P—K, 10-2-1), and lysine (HCl) (N—P—K, 15-2-1)) were prepared and applied to 4 replications of Floratam St. Augustine grass. The lysine (HCl) was dissolved in water prior to application. Each fertilizer treatment was applied in concentrations of 0.5 lb N/1000 ft^2/month, 1.0 lb N/1000 ft^2/month and 3.0 lb N/1000 ft^2/month. The urea, LIQUID LYSINE and lysine (HCl) were applied as foliar liquids, while Milorganite was applied as a granular fertilizer. Plot size was 1 m×2 m set up as a randomized complete block. Plots were mowed at 3.0 inches before fertilizer application. Irrigation (0.15 inch) was applied following application. Plots were rated for turfgrass quality and color (scale of 1-10 where 10=dark green turf, 1=dead/brown turf; and 6=minimally acceptable turf) and phytotoxicity (scale of 0-5, where 5=worst, and 2=minimally objectionable) throughout the study period. Quality, color, and phytotoxicity were measured on 2 days before application (day −2) and day 2, day 5, day 15 and day 21 after application. All data was subject to statistical analysis and significant means were determined. Average turfgrass quality ratings for the treatments are presented in Table 6 and the quality results for application rates of 1.0 lb N/1000 ft^2/month are graphically presented in FIG. 2.

[2] = tested on: Pennlinks creeping bentgrass for greens; experiment: Turfgrass quality rating, greens creeping bentgrass (Example 16); format: in vivo; conditions: scale of 1-9
Source text: In this Example, the effect of a fertilizer comprising lysine on cool season greens quality turfgrass growth was examined. The effects of lysine (HCl) and LIQUID LYSINE on a common type of golf course greens quality turfgrass (Pennlinks creeping bentgrass for greens, mown at 0.1875 in height of cut) were compared with those of urea, Milorganite and a blended fertilizer (a blend of methylene urea and urea in an approximately 1:1 ratio).
Fifteen fertilizer treatments comprising three concentrations of each fertilizer composition (Milorganite (N—P—K, 6-2-0), urea (N—P—K, 46-0-0), a blended fertilizer, LIQUID LYSINE N—P—K, 10-2-1), and lysine (HCl) (N—P—K, 15-2-1)) were prepared and applied to 3 replications of well established Pennlinks creeping bentgrass mown to 0.1875 in height cut. The urea, lysine (HCl), and LIQUID LYSINE were dissolved/suspended in 1.5 gal water prior to application. Each fertilizer treatment was applied in concentrations of 0.125 lb N/1000 ft^2/week, 0.250 lb N/1000 ft^2/week and 0.750 lb N/1000 ft^2/week. The urea, LIQUID LYSINE and lysine (HCl) were applied as foliar liquids, while Milorganite and blended fertilizer were applied as granular fertilizers. Plot size was 4 ft×8 ft laid out in a replicated complete block design. Plots were mowed at 0.1875 inches height before fertilizer application and mowed five times per week to 0.1875 inch height. Grass clippings were removed from the plots after each mowing. Irrigation (0.15 inch) was applied following application and daily thereafter. Plots were rated for turfgrass quality (scale of 1-9 where 9=dark green turf, 1=dead/brown turf, and 6=minimally acceptable turf) and phytotoxic injury (scale of 0-9 where 9=significant foliar injury and 2=minimally objectionable foliar injury) throughout the study period. Quality was measured prior to application (day 0) and day 37, day 70 and day 95 after application. Injury was measured on day 37, day 70 and day 95 after application. Ai) additional set of turfgrass plots were fertilized with three treatments of a soy concentrate fertilizer with the same application rates and methods. The quality and phytotoxic injury of the soy concentrate fertilizer plots were measured on day 95. All data was subject to statistical analysis and significant means were determined.

[3] = Monthly Rate 0.5 lbs N/1000 ft^2, Day 2
[4] = Monthly Rate 0.5 lbs N/1000 ft^2, Day 5
[5] = Monthly Rate 0.5 lbs N/1000 ft^2, Day 15
[6] = Monthly Rate 0.5 lbs N/1000 ft^2, Day 21
[7] = Monthly Rate 0.5 lbs N/1000 ft^2, Day −2 (before application)
[8] = Monthly Rate 1.0 lbs N/1000 ft^2, Day 2
[9] = Monthly Rate 1.0 lbs N/1000 ft^2, Day 5
[10] = Monthly Rate 1.0 lbs N/1000 ft^2, Day 15
[11] = Monthly Rate 1.0 lbs N/1000 ft^2, Day 21
[12] = Monthly Rate 1.0 lbs N/1000 ft^2, Day −2 (before application)
[13] = Monthly Rate 3.0 lbs N/1000 ft^2, Day 2
[14] = Monthly Rate 3.0 lbs N/1000 ft^2, Day 5
[15] = Monthly Rate 3.0 lbs N/1000 ft^2, Day 15
[16] = Monthly Rate 3.0 lbs N/1000 ft^2, Day 21
[17] = Monthly Rate 3.0 lbs N/1000 ft^2, Day −2 (before application)
[18] = Weekly Rate 0.125 lbs N/1000 ft^2, Day 0
[19] = Weekly Rate 0.125 lbs N/1000 ft^2, Day 37
[20] = Weekly Rate 0.125 lbs N/1000 ft^2, Day 70
[21] = Weekly Rate 0.125 lbs N/1000 ft^2, Day 95
[22] = Weekly Rate 0.25 lbs N/1000 ft^2, Day 0
[23] = Weekly Rate 0.25 lbs N/1000 ft^2, Day 37
[24] = Weekly Rate 0.25 lbs N/1000 ft^2, Day 70
[25] = Weekly Rate 0.25 lbs N/1000 ft^2, Day 95
[26] = Weekly Rate 0.75 lbs N/1000 ft^2, Day 0
[27] = Weekly Rate 0.75 lbs N/1000 ft^2, Day 37
[28] = Weekly Rate 0.75 lbs N/1000 ft^2, Day 70
[29] = Weekly Rate 0.75 lbs N/1000 ft^2, Day 95

NC(N)=O [Urea, urea, reference compound]
Color Ratings - St. Augustine Grass [1, 3]: 6.9 | Quality Ratings - St. Augustine Grass [1, 3]: 6.8 | Color Ratings - St. Augustine Grass [1, 4]: 7.4cd | Quality Ratings - St. Augustine Grass [1, 4]: 7.1bcd | Color Ratings - St. Augustine Grass [1, 5]: 7.8bc | Quality Ratings - St. Augustine Grass [1, 5]: 7.6def | Color Ratings - St. Augustine Grass [1, 6]: 7.6bc | Quality Ratings - St. Augustine Grass [1, 6]: 7.6bc | Color Ratings - St. Augustine Grass [1, 7]: 6.4 | Quality Ratings - St. Augustine Grass [1, 7]: 6.3 | Color Ratings - St. Augustine Grass [1, 8]: 6.9 | Quality Ratings - St. Augustine Grass [1, 8]: 6.8 | Color Ratings - St. Augustine Grass [1, 9]: 7.6bc | Quality Ratings - St. Augustine Grass [1, 9]: 7.5ab | Color Ratings - St. Augustine Grass [1, 10]: 7.5cde | Quality Ratings - St. Augustine Grass [1, 10]: 7.9cde | Color Ratings - St. Augustine Grass [1, 11]: 7.9abc | Quality Ratings - St. Augustine Grass [1, 11]: 7.6bc | Color Ratings - St. Augustine Grass [1, 12]: 6.4 | Quality Ratings - St. Augustine Grass [1, 12]: 6.3 | Color Ratings - St. Augustine Grass [1, 13]: 6.8 | Quality Ratings - St. Augustine Grass [1, 13]: 6.9 | Color Ratings - St. Augustine Grass [1, 14]: 8.3a | Quality Ratings - St. Augustine Grass [1, 14]: 7.3abc | Color Ratings - St. Augustine Grass [1, 15]: 8.8a | Quality Ratings - St. Augustine Grass [1, 15]: 9.1ab | Color Ratings - St. Augustine Grass [1, 16]: 8.5a | Quality Ratings - St. Augustine Grass [1, 16]: 8.3a | Color Ratings - St. Augustine Grass [1, 17]: 6.1 | Quality Ratings - St. Augustine Grass [1, 17]: 6.1 | Quality Rating - Greens Bentgrass [2, 18]: 4.3de | Quality Rating - Greens Bentgrass [2, 19]: 4.7ef | Quality Rating - Greens Bentgrass [2, 20]: 5.7c | Quality Rating - Greens Bentgrass [2, 21]: 5.7b | Quality Rating - Greens Bentgrass [2, 22]: 5.0bc | Quality Rating - Greens Bentgrass [2, 23]: 6.3bc | Quality Rating - Greens Bentgrass [2, 24]: 6.0bc | Quality Rating - Greens Bentgrass [2, 25]: 6.0ab | Quality Rating - Greens Bentgrass [2, 26]: 5.3b | Quality Rating - Greens Bentgrass [2, 27]: 8.0a | Quality Rating - Greens Bentgrass [2, 28]: 7.0a | Quality Rating - Greens Bentgrass [2, 29]: 6.7ab

Cl.NCCCC[C@H](N)C(=O)O [Lys (HCl) 15% N, L-lysine monohydrochloride]
Color Ratings - St. Augustine Grass [1, 3]: 6.5 | Quality Ratings - St. Augustine Grass [1, 3]: 6.5 | Color Ratings - St. Augustine Grass [1, 4]: 7.3cd | Quality Ratings - St. Augustine Grass [1, 4]: 7.1bcd | Color Ratings - St. Augustine Grass [1, 5]: 7.0ef | Quality Ratings - St. Augustine Grass [1, 5]: 7.3ef | Color Ratings - St. Augustine Grass [1, 6]: 7.4c | Quality Ratings - St. Augustine Grass [1, 6]: 7.3cd | Color Ratings - St. Augustine Grass [1, 7]: 6.6 | Quality Ratings - St. Augustine Grass [1, 7]: 6.5 | Color Ratings - St. Augustine Grass [1, 8]: 7.0 | Quality Ratings - St. Augustine Grass [1, 8]: 6.6 | Color Ratings - St. Augustine Grass [1, 9]: 7.6bc | Quality Ratings - St. Augustine Grass [1, 9]: 7.3abc | Color Ratings - St. Augustine Grass [1, 10]: 7.6cd | Quality Ratings - St. Augustine Grass [1, 10]: 7.9cde | Color Ratings - St. Augustine Grass [1, 11]: 8.0abc | Quality Ratings - St. Augustine Grass [1, 11]: 7.9ab | Color Ratings - St. Augustine Grass [1, 12]: 6.6 | Quality Ratings - St. Augustine Grass [1, 12]: 6.4 | Color Ratings - St. Augustine Grass [1, 13]: 6.6 | Quality Ratings - St. Augustine Grass [1, 13]: 6.9 | Color Ratings - St. Augustine Grass [1, 14]: 8.0ab | Quality Ratings - St. Augustine Grass [1, 14]: 7.5ab | Color Ratings - St. Augustine Grass [1, 15]: 8.6a | Quality Ratings - St. Augustine Grass [1, 15]: 9.3a | Color Ratings - St. Augustine Grass [1, 16]: 8.0abc | Quality Ratings - St. Augustine Grass [1, 16]: 7.9ab | Color Ratings - St. Augustine Grass [1, 17]: 6.6 | Quality Ratings - St. Augustine Grass [1, 17]: 6.3 | Quality Rating - Greens Bentgrass [2, 18]: 4.7cd | Quality Rating - Greens Bentgrass [2, 19]: 5.0de | Quality Rating - Greens Bentgrass [2, 20]: 6.0bc | Quality Rating - Greens Bentgrass [2, 21]: 6.0ab | Quality Rating - Greens Bentgrass [2, 22]: 4.7cd | Quality Rating - Greens Bentgrass [2, 23]: 6.0bcd | Quality Rating - Greens Bentgrass [2, 24]: 6.0bc | Quality Rating - Greens Bentgrass [2, 25]: 6.3ab | Quality Rating - Greens Bentgrass [2, 26]: 6.0a | Quality Rating - Greens Bentgrass [2, 27]: 7.0ab | Quality Rating - Greens Bentgrass [2, 28]: 7.0a | Quality Rating - Greens Bentgrass [2, 29]: 7.0a

From patent publication US7811352B2, “Fertilizer compositions and methods of using” (priority 2005, dated 2010)
